Assays:
Details in all cases: Compound concentration 1000.0 nM
[1] = biological target: Tyrosine-protein kinase JAK2 (Homo sapiens) (UniProt O60674)
[2] = tested on: Epidermal growth factor receptor (Homo sapiens), P00533 [T790M]
[3] = biological target: Serine/threonine-protein kinase 36 (Homo sapiens) (UniProt Q9NRP7)
[4] = biological target: T1, Aurora kinase A (Homo sapiens) (UniProt O14965)
T1 sequence (whole entry): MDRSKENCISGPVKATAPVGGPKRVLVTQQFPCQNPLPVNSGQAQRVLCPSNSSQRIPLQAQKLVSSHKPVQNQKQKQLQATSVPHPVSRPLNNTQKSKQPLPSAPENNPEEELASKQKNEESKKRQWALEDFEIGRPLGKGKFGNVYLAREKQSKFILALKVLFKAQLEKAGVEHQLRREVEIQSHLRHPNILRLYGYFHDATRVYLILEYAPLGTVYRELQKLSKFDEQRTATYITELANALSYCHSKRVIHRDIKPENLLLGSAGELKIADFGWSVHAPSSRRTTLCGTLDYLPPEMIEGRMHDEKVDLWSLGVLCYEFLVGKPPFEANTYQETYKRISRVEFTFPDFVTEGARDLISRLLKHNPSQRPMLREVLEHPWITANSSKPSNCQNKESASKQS

[5] = biological target: AP2-associated protein kinase 1 (Homo sapiens) (UniProt Q2M2I8)
[6] = biological target: Macrophage-stimulating protein receptor (Homo sapiens) (UniProt Q04912)
Chain of Macrophage-stimulating protein receptor (Homo sapiens) (Q04912 25-304 limits assumed): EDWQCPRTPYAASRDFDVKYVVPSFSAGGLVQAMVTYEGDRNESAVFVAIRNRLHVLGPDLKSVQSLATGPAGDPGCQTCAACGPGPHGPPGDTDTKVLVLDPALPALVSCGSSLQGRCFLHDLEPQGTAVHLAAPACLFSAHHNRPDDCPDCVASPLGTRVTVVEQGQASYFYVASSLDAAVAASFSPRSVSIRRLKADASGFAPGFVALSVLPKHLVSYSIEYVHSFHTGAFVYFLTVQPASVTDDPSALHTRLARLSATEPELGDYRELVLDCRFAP
Chain of Macrophage-stimulating protein receptor (Homo sapiens) (Q04912 310-1400 limits assumed): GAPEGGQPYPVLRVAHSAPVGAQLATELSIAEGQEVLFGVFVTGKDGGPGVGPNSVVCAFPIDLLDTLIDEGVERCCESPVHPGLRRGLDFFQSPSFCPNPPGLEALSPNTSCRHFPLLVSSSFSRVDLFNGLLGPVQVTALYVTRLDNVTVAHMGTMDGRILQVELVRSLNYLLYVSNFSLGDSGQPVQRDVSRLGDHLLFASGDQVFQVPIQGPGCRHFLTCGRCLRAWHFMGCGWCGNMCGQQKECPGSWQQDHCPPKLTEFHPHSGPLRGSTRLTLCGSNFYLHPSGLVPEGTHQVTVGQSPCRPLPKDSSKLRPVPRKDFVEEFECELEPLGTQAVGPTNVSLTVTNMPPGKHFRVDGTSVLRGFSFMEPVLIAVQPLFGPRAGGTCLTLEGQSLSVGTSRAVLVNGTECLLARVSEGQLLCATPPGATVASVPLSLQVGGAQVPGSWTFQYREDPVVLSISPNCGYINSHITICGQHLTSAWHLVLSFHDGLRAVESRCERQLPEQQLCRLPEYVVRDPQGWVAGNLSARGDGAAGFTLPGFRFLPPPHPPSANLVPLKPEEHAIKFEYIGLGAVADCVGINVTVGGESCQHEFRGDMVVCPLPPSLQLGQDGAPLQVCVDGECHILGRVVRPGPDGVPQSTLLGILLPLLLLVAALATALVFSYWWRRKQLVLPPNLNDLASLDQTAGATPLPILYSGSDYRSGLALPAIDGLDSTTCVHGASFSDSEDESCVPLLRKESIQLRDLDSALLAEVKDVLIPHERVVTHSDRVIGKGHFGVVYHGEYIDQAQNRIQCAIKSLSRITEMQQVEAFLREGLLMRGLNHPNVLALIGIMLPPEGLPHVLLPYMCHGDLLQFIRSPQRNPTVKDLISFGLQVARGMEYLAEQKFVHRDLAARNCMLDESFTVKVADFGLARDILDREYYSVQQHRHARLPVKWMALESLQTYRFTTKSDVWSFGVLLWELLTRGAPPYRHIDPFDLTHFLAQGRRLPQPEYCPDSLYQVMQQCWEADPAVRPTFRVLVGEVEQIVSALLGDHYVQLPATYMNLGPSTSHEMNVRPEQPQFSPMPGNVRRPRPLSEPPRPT

[7] = biological target: MAP kinase-interacting serine/threonine-protein kinase 2 (Homo sapiens) (UniProt Q9HBH9)
[8] = biological target: Serine/threonine-protein kinase WNK4 (Homo sapiens) (UniProt Q96J92)
[9] = biological target: Ribosomal protein S6 kinase alpha-3 (Homo sapiens) (UniProt P51812)
[10] = biological target: Calcium/calmodulin-dependent protein kinase type II subunit gamma (Homo sapiens) (UniProt Q13555)
[11] = biological target: Dual specificity testis-specific protein kinase 1 (Homo sapiens) (UniProt Q15569)
Chain of Dual specificity testis-specific protein kinase 1 (Homo sapiens) (Q15569 whole entry, looked up): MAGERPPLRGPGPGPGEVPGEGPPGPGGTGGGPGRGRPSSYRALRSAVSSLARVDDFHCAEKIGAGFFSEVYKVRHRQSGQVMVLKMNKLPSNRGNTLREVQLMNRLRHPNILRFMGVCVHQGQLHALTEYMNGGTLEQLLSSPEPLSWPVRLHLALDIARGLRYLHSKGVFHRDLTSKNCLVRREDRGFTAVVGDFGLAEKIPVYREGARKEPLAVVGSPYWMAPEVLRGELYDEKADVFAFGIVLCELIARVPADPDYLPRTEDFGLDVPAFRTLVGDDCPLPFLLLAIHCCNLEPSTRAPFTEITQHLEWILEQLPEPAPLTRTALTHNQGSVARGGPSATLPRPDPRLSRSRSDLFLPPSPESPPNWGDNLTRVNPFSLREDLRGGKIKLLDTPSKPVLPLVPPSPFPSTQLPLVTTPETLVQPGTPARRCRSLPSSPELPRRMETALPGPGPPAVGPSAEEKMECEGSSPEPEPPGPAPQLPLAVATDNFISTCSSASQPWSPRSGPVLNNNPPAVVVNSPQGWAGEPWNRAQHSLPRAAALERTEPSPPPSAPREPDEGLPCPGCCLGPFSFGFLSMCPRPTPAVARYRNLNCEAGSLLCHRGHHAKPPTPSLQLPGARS

[12] = biological target: T2, Serine/threonine-protein kinase STK11 (Homo sapiens) (UniProt Q15831)
T2 sequence (whole entry): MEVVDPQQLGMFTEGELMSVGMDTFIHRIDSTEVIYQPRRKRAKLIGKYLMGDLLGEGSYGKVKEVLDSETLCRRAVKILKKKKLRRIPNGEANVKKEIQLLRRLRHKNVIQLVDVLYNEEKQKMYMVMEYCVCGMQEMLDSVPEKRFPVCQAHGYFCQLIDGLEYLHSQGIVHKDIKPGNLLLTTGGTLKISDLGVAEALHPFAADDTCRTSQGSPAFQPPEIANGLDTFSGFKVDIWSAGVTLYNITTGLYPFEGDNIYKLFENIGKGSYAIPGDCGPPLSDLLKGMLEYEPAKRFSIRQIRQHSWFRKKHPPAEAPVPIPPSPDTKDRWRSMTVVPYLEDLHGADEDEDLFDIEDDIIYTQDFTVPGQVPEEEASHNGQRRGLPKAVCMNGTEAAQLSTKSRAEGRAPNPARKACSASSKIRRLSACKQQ

[13] = tested on: Receptor-type tyrosine-protein kinase FLT3 (Homo sapiens), P36888 [K663Q]
[14] = tested on: Mast/stem cell growth factor receptor Kit (Homo sapiens), P10721 [D816V]
[15] = biological target: Serine/threonine-protein kinase VRK2 (Homo sapiens) (UniProt Q86Y07)
Chain of Serine/threonine-protein kinase VRK2 (Homo sapiens) (Q86Y07 whole entry): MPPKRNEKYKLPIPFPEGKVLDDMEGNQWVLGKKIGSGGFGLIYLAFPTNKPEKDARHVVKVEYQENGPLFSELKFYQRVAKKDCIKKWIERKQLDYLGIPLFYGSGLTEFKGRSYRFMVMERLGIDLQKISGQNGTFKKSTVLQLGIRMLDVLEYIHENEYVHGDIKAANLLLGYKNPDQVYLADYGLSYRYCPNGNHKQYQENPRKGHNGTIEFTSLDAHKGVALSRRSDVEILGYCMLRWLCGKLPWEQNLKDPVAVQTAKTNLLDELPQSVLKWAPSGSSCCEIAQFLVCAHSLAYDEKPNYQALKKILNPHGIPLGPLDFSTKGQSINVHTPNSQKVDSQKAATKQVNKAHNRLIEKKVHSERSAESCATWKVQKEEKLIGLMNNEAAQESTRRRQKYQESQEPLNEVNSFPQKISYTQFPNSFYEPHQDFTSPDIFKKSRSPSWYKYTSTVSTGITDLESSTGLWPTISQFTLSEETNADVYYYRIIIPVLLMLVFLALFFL

[16] = biological target: cAMP-dependent protein kinase catalytic subunit alpha (Homo sapiens) (UniProt P17612)
[17] = biological target: ALK tyrosine kinase receptor (Homo sapiens) (UniProt Q9UM73)
[18] = biological target: Mitogen-activated protein kinase 9 (Homo sapiens) (UniProt P45984)
Chain of Mitogen-activated protein kinase 9 (Homo sapiens) (P45984 whole entry, looked up): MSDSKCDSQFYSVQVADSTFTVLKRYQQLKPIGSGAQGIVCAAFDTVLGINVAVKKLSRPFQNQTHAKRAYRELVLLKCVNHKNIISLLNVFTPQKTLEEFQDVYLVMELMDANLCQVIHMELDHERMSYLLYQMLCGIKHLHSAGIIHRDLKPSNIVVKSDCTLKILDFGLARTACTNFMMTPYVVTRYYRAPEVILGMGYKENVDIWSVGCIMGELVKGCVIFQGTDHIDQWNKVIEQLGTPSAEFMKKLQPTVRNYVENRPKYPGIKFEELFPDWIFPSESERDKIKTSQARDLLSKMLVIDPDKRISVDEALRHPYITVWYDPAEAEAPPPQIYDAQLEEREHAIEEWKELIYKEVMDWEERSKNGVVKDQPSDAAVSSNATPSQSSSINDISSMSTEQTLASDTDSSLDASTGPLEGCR

[19] = biological target: T3, Serine/threonine-protein kinase D3 (Homo sapiens) (UniProt O94806)
T3 sequence (whole entry): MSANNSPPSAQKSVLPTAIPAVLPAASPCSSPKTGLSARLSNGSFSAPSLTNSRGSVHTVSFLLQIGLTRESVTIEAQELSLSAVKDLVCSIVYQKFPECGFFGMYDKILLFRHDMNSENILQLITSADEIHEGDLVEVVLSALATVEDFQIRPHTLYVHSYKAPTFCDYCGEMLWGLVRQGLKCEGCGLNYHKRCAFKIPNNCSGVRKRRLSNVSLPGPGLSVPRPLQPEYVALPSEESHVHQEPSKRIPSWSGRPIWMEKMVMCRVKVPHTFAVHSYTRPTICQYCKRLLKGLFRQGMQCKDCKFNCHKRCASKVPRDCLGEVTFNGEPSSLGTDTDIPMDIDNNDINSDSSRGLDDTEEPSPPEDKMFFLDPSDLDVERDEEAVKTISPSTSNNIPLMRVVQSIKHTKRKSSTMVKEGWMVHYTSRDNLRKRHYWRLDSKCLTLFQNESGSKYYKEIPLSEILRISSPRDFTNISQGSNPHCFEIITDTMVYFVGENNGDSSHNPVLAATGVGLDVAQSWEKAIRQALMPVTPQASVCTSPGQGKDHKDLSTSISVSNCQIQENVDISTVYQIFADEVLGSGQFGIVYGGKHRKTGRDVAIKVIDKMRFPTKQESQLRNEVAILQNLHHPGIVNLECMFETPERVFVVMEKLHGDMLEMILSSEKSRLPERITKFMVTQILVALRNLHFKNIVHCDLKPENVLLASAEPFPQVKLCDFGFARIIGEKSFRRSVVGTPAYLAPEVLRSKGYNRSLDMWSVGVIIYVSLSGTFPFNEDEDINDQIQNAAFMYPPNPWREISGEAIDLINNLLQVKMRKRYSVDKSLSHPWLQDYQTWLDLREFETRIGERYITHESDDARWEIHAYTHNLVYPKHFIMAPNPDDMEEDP

[20] = biological target: Tyrosine-protein kinase receptor UFO (Homo sapiens) (UniProt P30530)
[21] = biological target: Casein kinase I isoform gamma-2 (Homo sapiens) (UniProt P78368)
Chain of Casein kinase I isoform gamma-2 (Homo sapiens) (P78368 whole entry, looked up, canonical isoform): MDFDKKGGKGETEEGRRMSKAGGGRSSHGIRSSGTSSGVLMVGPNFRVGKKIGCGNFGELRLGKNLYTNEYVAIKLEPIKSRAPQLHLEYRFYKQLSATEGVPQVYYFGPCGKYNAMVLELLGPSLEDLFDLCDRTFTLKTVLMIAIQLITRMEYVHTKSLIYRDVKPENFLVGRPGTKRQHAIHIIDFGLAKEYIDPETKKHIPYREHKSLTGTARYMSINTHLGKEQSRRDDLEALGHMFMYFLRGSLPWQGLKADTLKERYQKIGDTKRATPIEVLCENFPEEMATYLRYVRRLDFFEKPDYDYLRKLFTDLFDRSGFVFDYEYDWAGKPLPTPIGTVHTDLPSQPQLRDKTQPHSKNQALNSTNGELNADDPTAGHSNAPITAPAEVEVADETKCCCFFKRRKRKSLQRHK

[22] = biological target: Proto-oncogene tyrosine-protein kinase Src (Homo sapiens) (UniProt P12931)
Chain of Proto-oncogene tyrosine-protein kinase Src (Homo sapiens) (P12931 2-536 limits assumed): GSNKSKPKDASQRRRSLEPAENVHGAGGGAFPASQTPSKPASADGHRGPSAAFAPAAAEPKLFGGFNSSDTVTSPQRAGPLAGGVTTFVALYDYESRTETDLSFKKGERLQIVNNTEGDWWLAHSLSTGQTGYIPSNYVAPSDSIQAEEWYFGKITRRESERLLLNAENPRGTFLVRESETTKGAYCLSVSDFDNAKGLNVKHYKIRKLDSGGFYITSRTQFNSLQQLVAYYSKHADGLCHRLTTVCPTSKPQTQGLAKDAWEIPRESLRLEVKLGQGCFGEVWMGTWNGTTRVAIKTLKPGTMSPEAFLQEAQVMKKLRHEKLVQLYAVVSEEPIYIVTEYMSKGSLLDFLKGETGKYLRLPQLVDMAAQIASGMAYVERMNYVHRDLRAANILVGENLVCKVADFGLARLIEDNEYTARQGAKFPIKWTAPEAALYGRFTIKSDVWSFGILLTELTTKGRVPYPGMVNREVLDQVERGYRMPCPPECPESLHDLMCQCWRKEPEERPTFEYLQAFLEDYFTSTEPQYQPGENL

Measured: residual activity

Chain of Tyrosine-protein kinase JAK2 (Homo sapiens) (O60674 whole entry): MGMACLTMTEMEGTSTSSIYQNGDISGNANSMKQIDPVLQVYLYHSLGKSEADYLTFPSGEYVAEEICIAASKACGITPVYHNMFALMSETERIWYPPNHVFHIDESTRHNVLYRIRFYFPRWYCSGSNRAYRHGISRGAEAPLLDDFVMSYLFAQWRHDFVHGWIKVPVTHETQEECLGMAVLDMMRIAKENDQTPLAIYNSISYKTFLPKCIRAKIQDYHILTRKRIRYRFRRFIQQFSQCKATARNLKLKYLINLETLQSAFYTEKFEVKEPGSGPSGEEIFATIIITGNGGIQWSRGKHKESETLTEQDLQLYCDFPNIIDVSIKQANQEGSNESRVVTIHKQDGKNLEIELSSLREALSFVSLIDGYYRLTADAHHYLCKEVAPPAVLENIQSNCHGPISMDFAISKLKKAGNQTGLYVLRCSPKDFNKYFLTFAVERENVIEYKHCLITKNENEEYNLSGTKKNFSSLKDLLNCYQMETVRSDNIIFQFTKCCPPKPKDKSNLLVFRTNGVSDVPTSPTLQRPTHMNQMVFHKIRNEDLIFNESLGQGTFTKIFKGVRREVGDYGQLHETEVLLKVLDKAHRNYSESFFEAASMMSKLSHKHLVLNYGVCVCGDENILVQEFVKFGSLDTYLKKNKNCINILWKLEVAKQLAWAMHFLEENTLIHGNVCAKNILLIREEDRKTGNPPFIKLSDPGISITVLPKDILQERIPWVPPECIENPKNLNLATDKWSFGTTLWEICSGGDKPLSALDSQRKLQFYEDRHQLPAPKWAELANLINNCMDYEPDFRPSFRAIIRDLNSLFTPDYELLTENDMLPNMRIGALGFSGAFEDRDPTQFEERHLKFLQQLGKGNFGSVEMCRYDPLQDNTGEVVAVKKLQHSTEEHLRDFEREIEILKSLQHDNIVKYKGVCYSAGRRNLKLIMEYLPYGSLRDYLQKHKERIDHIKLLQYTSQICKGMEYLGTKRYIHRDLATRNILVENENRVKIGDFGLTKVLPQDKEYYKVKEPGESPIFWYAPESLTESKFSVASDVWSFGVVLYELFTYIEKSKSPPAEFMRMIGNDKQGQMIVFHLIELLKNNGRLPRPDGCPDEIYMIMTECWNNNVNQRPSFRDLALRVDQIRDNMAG

Cc1nc(C2CCN(C(=O)c3ccc(OC(F)(F)F)cc3N)CC2)c2ncc(N3CCN(C)CC3)cc2n1 [BAY-693]
inactive: [1] 99% | [2] 100% | [3] 100% | [4] 99% | [5] 100% | [6] 82% | [7] 100% | [8] 100% | [9] 82% | [10] 100% | [11] 100% | [12] 100% | [13] 100% | [14] 100% | [15] 100% | [16] 100% | [17] 89% | [18] 100% | [19] 100% | [20] 100% | [21] 93% | [22] 99%

CN1CCN(c2cnc3c(C4CCN(C(=O)c5ccc(OC(F)(F)F)cc5N)CC4)ncnc3c2)CC1 [BAY-885]
inactive: [1] 83% | [2] 84% | [3] 75% | [4] 100% | [5] 100% | [6] 90% | [7] 100% | [8] 99% | [9] 80% | [10] 100% | [11] 96% | [12] 100% | [13] 100% | [14] 100% | [15] 100% | [16] 100% | [17] 99% | [18] 100% | [19] 100% | [20] 78% | [21] 100% | [22] 100%
